Assays:
8392B cell line [1] = test: Two hour toxicity: inhibition of DNA synthesis activity, nontarget cell line; type: cell-based; conditions: read-out: Mean IC50 value (nM) ± SD, N=3 unless otherwise indicated; 8392B Nontarget Cell Line; 2 hr exposure; 8392B nontarget cell line, 2 hr exposure; mean ± SD, N=3 unless otherwise indicated
MV522 cell line = test: cells; type: cell-based; conditions: read-out: Mean IC50 value (nM) ± SD, N=3 unless otherwise indicated; MV522 Target Cell Line; 2 hr exposure; MV522 target cell line, 2 hr exposure; mean ± SD, N=3 unless otherwise indicated
8392B cell line [2] = test: cells; type: cell-based; conditions: read-out: Mean IC50 value (nM) ± SD, N=3 unless otherwise indicated, 8392B Nontarget Cell Line, 48 hr exposure, 8392B nontarget cell line, mean ± SD, N=3 unless otherwise indicated
NCI 60 cell line panel = test: NCI DTP 60 cell line screen assay; conditions: for Cytotoxicity: ability to actually kill tumor cells versus only inhibiting growth
Source text: An ADC is engulfed by a tumor cell, transported to the endosomes (pH < 6.0) and then into the lysozomes (pH < 4). […] 4) Cancer cells can become resistant to various toxins and drugs through the development of what is termed multi-drug resistance. This process is known to occur through several different mechanisms.

Row | Structure (SMILES) | IC50 (8392B cell line [1]) | IC50 (8392B cell line [2]) | also measured
1 | CC1=C2C(=CC(C)(C)C2OC(=O)c2ccc(S(=O)(=O)F)cc2)C(=O)C(C)(O)C12CC2 (centres unmarked) [compound 222] | 9300 nM | – | –
2 | CCCCCCCC/C=C/CCCCCCCC(=O)OCCCC1=C(C)C=C2C(=O)[C@](C)(O)C3(CC3)C(C)=C21 [compound 227] | > 57000 nM | – | IC50 (MV522 cell line): > 57000 nM
3 | CC(=O)ON(C(C)=O)C(=O)OCCCC1=C(C)C=C2C(=O)[C@](C)(O)C3(CC3)C(C)=C21 [compound 240] | > 24000 nM | – | –
4 | CC1=C([C@@H]2CCOS(=O)(=O)N2)C2=C(C)C3(CC3)[C@@](C)(O)C(=O)C2=C1 [compound 259] | > 85000 nM | – | –
5 | CC1=C(CCCNC(=O)N2CCC(N3CCCCC3)CC2)C2=C(C)C3(CC3)[C@@](C)(O)C(=O)C2=C1 [compound 260] | > 64000 nM | – | –
6 | COC(=O)C[S+]([O-])CC1=C(C)C=C2C(=O)[C@](C)(O)C3(CC3)C(C)=C21 (some centres unmarked) [compound 263] | 124000 ± 18000 nM | – | –
7 | CON(CC1=C(C)C=C2C(=O)[C@](C)(O)C3(CC3)C(C)=C21)C(=O)CN [compound 267] | > 90000 nM | – | –
8 | CC1=C(CCCNC(=O)C(F)(F)F)C2=C(C)C3(CC3)[C@@](C)(O)C(=O)C2=C1 [compound 268] | – | > 8000 nM | –
9 | COc1ccc(NS(=O)(=O)OCC2=C(C)C=C3C(=O)[C@](C)(O)C4(CC4)C(C)=C32)cc1 [compound 269] | – | > 7000 nM | –
10 | CC1=C(CN)C2=C(C)C3(CC3)[C@@](C)(O)C(=O)C2=C1 [compound 270] | > 84000 nM | – | –
11 | CC1=C(CNS(C)(=O)=O)C2=C(C)C3(CC3)[C@@](C)(O)C(=O)C2=C1 [compound 271] | > 93000 nM | > 9300 nM | –
12 | CC1=C(CCCNC(=O)OCC2=C(C(=O)O)N3C(=O)[C@H](NC(=O)Cc4cccs4)[C@@H]3S(=O)(=O)C2)C2=C(C)C3(CC3)[C@@](C)(O)C(=O)C2=C1 [compound 274] | > 46000 nM | > 4500 nM | –
13 | CC1=C(CNC(=O)C2CCCN2)C2=C(C)C3(CC3)[C@@](C)(O)C(=O)C2=C1 (some centres unmarked) [compound 275] | > 62000 nM | > 6200 nM | –
14 | CC1=C(CNC(=O)C(N)CC(C)C)C2=C(C)C3(CC3)[C@@](C)(O)C(=O)C2=C1 (some centres unmarked) [compound 276] | > 61000 nM | > 6100 nM | –
15 | CONC(=O)NCC1=C(C)C=C2C(=O)[C@](C)(O)C3(CC3)C(C)=C21 [compound 278] | > 94000 nM | > 9400 nM | –
16 | CC1=C(CNS(N)(=O)=O)C2=CC3(CC3)C(C)(O)C(=O)C2=C1 (centres unmarked) [compound 283] | – | > 9300 nM | –
17 | CC1=C(Cn2c(=O)cc[nH]c2=O)C2=C(C)C3(CC3)[C@@](C)(O)C(=O)C2=C1 [compound 284] | – | > 8800 nM | –
18 | CC1=C(Cn2cc(F)c(=O)[nH]c2=O)C2=C(C)C3(CC3)[C@@](C)(O)C(=O)C2=C1 [compound 286] | – | > 8800 nM | –
19 | CC1=C(CCCOC(=O)CNC(=O)OC(C)(C)C)C2=C(C)C3(CC3)[C@@](C)(O)C(=O)C2=C1 [compound 298] | – | – | IC50 (MV522 cell line): > 7000 nM
20 | CC(=O)OC[C@]1(C)C=C2C(=O)[C@](C)(O)C3(CC3)C(C)=C2[C@H]1OC(=O)N(C)CCN(C)C(=O)OC(C)(C)C [compound 334] | – | – | MDR Activity (NCI 60 cell line panel): Yes; Cytotoxicity (NCI 60 cell line panel): Yes
21 | CC1=C2C(=C[C@@](C)(COS(C)(=O)=O)[C@@H]2O)C(=O)[C@](C)(O)C12CC2 [compound 362] | – | – | MDR Activity (NCI 60 cell line panel): Yes; Cytotoxicity (NCI 60 cell line panel): Yes
22 | CC(=O)O[C@@H]1C2=C(C)C3(CC3)[C@@](C)(O)C(=O)C2=C[C@@]1(C)CO [compound 371] | – | – | MDR Activity (NCI 60 cell line panel): Yes; Cytotoxicity (NCI 60 cell line panel): Yes
23 | CC1=C2C(=C[C@@](C)(C=O)[C@@H]2O)C(=O)[C@](C)(O)C12CC2 [compound 383] | – | – | MDR Activity (NCI 60 cell line panel): Yes; Cytotoxicity (NCI 60 cell line panel): Yes
24 | CC1=C(CNO)C2=C(C)C3(CC3)[C@@](C)(O)C(=O)C2=C1 [compound 394] | – | – | MDR Activity (NCI 60 cell line panel): Yes; Cytotoxicity (NCI 60 cell line panel): Yes
